According to patent publication US10259810B2, “N-sulfonylated pyrazolo[3,4-b]pyridin-6-carboxamides and method of use” (AbbVie S.à.r.l., priority 2015, dated 2019):

Experiments:
ΔF508-CFTR [1] = biological target: T1, ΔF508-CFTR (Homo sapiens, UniProt P13569, DEL508-508); test: CFTR cell surface levels using HRP-tagged ΔF508-CFTR expressing CFBE cells, intrinsic corrector capacity; assay type: cell-based; parameters: % Activation: concentration or dose not given beside the values; settings: HRP-tagged ΔF508-CFTR expressing CFBE41o- cells, compound alone (intrinsic corrector capacity), 20 hours at 33° C.; for EC50: read-out: EC50
T1 construct: host or cells: CFBE41o-, doxycycline-inducible
T1 sequence (P13569 with tags, fused parts or gaps DEL508-508): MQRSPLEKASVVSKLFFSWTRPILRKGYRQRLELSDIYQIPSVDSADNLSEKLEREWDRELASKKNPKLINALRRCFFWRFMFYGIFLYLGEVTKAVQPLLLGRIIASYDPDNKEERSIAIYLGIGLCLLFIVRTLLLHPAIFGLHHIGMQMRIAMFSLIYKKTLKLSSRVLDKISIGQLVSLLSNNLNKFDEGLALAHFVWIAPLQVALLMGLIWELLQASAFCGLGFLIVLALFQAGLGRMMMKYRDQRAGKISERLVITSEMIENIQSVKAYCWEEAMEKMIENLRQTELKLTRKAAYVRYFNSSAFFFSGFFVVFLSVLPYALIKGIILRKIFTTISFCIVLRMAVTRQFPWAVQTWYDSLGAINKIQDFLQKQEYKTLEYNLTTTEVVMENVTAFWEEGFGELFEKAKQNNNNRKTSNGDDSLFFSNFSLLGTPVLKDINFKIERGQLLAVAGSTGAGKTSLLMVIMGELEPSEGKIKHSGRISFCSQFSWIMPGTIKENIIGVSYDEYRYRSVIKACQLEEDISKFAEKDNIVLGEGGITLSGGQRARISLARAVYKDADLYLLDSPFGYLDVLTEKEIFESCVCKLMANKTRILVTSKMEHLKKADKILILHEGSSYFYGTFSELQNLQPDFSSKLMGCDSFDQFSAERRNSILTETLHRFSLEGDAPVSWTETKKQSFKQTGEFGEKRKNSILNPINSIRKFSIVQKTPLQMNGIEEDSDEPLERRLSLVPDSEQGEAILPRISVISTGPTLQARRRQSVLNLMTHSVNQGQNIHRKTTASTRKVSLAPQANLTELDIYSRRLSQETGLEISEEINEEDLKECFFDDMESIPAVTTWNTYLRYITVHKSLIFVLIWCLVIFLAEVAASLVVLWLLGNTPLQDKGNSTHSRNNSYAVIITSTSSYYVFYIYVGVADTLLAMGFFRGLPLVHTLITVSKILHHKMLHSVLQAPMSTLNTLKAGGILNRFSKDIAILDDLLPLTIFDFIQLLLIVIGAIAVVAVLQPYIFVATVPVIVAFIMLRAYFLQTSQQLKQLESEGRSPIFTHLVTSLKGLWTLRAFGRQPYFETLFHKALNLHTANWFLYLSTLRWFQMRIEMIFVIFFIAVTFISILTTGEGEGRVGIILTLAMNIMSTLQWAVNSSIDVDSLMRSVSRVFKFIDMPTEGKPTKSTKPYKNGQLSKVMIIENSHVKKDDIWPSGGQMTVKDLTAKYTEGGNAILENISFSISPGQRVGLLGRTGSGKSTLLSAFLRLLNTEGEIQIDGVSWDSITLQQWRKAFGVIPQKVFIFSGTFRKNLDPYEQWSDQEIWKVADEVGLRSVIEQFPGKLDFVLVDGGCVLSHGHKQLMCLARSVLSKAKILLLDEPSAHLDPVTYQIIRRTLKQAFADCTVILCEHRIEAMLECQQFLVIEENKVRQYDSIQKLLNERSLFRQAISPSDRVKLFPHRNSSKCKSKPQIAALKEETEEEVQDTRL
Summary of the method: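 Surface ΔF508-CFTR was measured as HRP chemiluminescence from an extracellular-loop-4 tag, expressed as percent activity between DMSO and a […] corrector control.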

ΔF508-CFTR [2] = biological target: T1, ΔF508-CFTR; test: CFTR cell surface levels using HRP-tagged ΔF508-CFTR expressing CFBE cells, in the presence of a co-corrector; assay type: cell-based; settings: HRP-tagged ΔF508-CFTR CFBE cells, in the presence of 3 μM co-corrector; for EC50: read-out: EC50
Summary of the method: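 Chemiluminescent read-out of surface HRP (15 min, dark) after PBS washes. Activity is normalized as 100×(sample−DMSO)/(3 μM co-corrector alone−DMSO).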

Row | SMILES | % Activation (ΔF508-CFTR [1]) [%] | EC50 (ΔF508-CFTR [1]) [µM] | % Activation (ΔF508-CFTR [2]) [%] | EC50 (ΔF508-CFTR [2]) [µM]
1 | CS(=O)(=O)NC(=O)c1cc(N2CCCC3(CC3)C2)c2c(C3CCC3)nn(-c3ccccc3)c2n1 [Compound 205, 4-(5-azaspiro[2.5]octan-5-yl)-3-cyclobutyl-N-(methanesulfonyl)-1-phenyl-1H-pyrazolo[3,4-b]pyridine-6-carboxamide] | 208.5 | 0.956 | 416.4 | 0.856
2 | CC(C)c1nn(-c2cccc(F)c2)c2nc(C(=O)NS(C)(=O)=O)cc(-c3ccc(N4CCC(C#N)CC4)cc3)c12 [Compound 131, 4-[4-(4-cyanopiperidin-1-yl)phenyl]-1-(3-fluorophenyl)-N-(methanesulfonyl)-3-(propan-2-yl)-1H-pyrazolo[3,4-b]pyridine-6-carboxamide] | 314.35 | 0.43 | 465.1 | 0.581
3 | CC(C)c1nn(-c2ccc(F)cc2)c2nc(C(=O)NS(C)(=O)=O)cc(OCC3COCCN3C(C)C)c12 (stereo not drawn) [Compound 310, 1-(4-fluorophenyl)-N-(methanesulfonyl)-3-(propan-2-yl)-4-{[4-(propan-2-yl)morpholin-3-yl]methoxy}-1H-pyrazolo[3,4-b]pyridine-6-carboxamide] | 66.84 | 0.692 | 251.5 | 0.924
4 | CO[C@H]1CC[C@@H](Oc2cc(C(=O)NS(C)(=O)=O)nc3c2c(C2CCC2)nn3-c2ccccc2)CC1 [Compound 211, 3-cyclobutyl-N-(methanesulfonyl)-4-[(cis-4-methoxycyclohexyl)oxy]-1-phenyl-1H-pyrazolo[3,4-b]pyridine-6-carboxamide] | 114.4 | 0.608 | 288.3 | 0.293
5 | Cc1cccc(-n2nc(C(C)C)c3c(N4CCC(CF)CC4)cc(C(=O)NS(C)(=O)=O)nc32)c1 [Compound 164, 4-[4-(fluoromethyl)piperidin-1-yl]-N-(methanesulfonyl)-1-(3-methylphenyl)-3-(propan-2-yl)-1H-pyrazolo[3,4-b]pyridine-6-carboxamide] | 295.25 | 0.594 | 492.45 | 0.388
6 | COCC1CCN(c2cc(C(=O)NS(=O)(=O)CCN)nc3c2c(C2CCC2)nn3-c2ccccc2)CC1 [Compound 261, N-(2-aminoethanesulfonyl)-3-cyclobutyl-4-[4-(methoxymethyl)piperidin-1-yl]-1-phenyl-1H-pyrazolo[3,4-b]pyridine-6-carboxamide] | 26.85 | > 10 | 129.3 | > 10
7 | Cc1nn(-c2ccccc2)c2nc(C(=O)NS(C)(=O)=O)cc(-c3ccc(N(C)C)cc3)c12 [Compound 33, 4-[4-(dimethylamino)phenyl]-N-(methanesulfonyl)-3-methyl-1-phenyl-1H-pyrazolo[3,4-b]pyridine-6-carboxamide] | 109 | 2.58 | 315.6 | 0.471
8 | COCCS(=O)(=O)NC(=O)c1cc(-c2ccc(N3CCC(C#N)CC3)nc2)c2c(OC3CCOC3)nn(-c3ccccc3)c2n1 (stereo not drawn) [Compound 275, 4-[6-(4-cyanopiperidin-1-yl)pyridin-3-yl]-N-(2-methoxyethanesulfonyl)-3-[(oxolan-3-yl)oxy]-1-phenyl-1H-pyrazolo[3,4-b]pyridine-6-carboxamide] | 138.8 | 0.468 | 269.85 | 0.138
9 | COCCS(=O)(=O)NC(=O)c1cc(-c2ccc(OC)cc2)c2c(C)nn(CC(C)C)c2n1 [Compound 231, N-(2-methoxyethanesulfonyl)-4-(4-methoxyphenyl)-3-methyl-1-(2-methylpropyl)-1H-pyrazolo[3,4-b]pyridine-6-carboxamide] | 162.9 | 0.939 | 329.9 | 0.518
